The subject of data set [1] is 1a-luc WT (HCV genotype 1a replicon). Description: Luciferase replicon transient transfection assay, 1a-luc WT. In kind it is cell-based. The conditions noted are these: Hepatitis C virus, 96 h, Huh7.5 cells, 4 days. Here is the method:
(§1) The luciferase replicon transient transfection assay measures the ability of a test compound to inhibit the replication of a transiently-transfected HCV luciferase-bearing wild-type or mutant replicon in cured human hepatoma cells (Huh7.5). The inhibition of HCV replication was measured by quantification of luciferase protein expression. This assay has been validated using a panel of genotype 1a and 1b replicons bearing mutations known to be associated with resistance to BMS-790052. Briefly, subconfluent Huh7.5 cells were electroporated with 10 μg of wild-type or mutant luciferase-bearing HCV replicon RNA. The cells were then seeded in 96-well opaque white plates at 3×10^4 cells/well in 150 μL/well and incubated for 4 hrs at 37° C./5% CO2. Ten 1:5 serial dilutions of each test compound were made in media (DMEM containing glucose, L-glutamine and sodium pyruvate, 10% fetal bovine serum, 100 IU/mL penicillin, 100 μg/mL streptomycin, 2 mM GlutaMAX, and 1×MEM non-essential amino acids (Mediatech, Inc. and Invitrogen Corp.)) at concentrations that were 4× higher than the final concentrations to be tested and 50 μL/well was added to the transfected cells. Untreated, mock-transfected cells served as a negative control of luciferase expression. The plates were incubated at 37° C./5% CO2 for 4 days whereupon the media was removed and 50 μL of ONE-glo luciferase substrate (Promega) was added to each well. The plates were agitated on a rotating platform at room temperature for 3 min and read in a Victor^3V microplate reader (Perkin-Elmer) using a 700 nm cut-off filter with a 1 sec read time. EC50 values were calculated from dose response curves from the resulting best-fit equations determined by Microsoft Excel and XLfit 4.1 software.
For orientation: Replicon systems follow genome replication, usually without infectious particles.

Data set [2] concerns 1a-luc Q30E (HCV genotype 1a replicon). Briefly: Luciferase replicon transient transfection assay, 1a-luc Q30E. The conditions noted are these: for EC50: Hepatitis C virus, 96 h, Huh7.5 cells, 4 days. In kind it is cell-based, hepatitis C virus. Here is the method: as §1
Data set [3] deals with 1a-luc L31V (HCV genotype 1a replicon). Description: Luciferase replicon transient transfection assay, 1a-luc L31V. The conditions noted are these: for EC50: Hepatitis C virus, 96 h, Huh7.5 cells, 4 days. In kind it is cell-based, hepatitis C virus. Here is the method:
as §1

Data set [4] deals with 1a-luc Y93H (HCV genotype 1a replicon). Briefly: Luciferase replicon transient transfection assay, 1a-luc Y93H. The conditions noted are these: for EC50: Hepatitis C virus, 96 h, Huh7.5 cells, 4 days. In kind it is cell-based, hepatitis C virus. Here is the method: as §1
For data set [5], the system named is ZS11-luc WT (HCV genotype 1b replicon). Briefly: Luciferase replicon transient transfection assay, ZS11-luc WT. In kind it is cell-based, hepatitis C virus. The conditions noted are these: Hepatitis C virus, Huh7.5, 96 h, genotype 1b, ZS11-luc WT, Huh7.5 cells, 4 days. Here is the method: as §1
In data set [6] the test system is ZS11-luc L31V (HCV genotype 1b replicon). Briefly: Luciferase replicon transient transfection assay, ZS11-luc L31V. The conditions noted are these: for EC50: Hepatitis C virus, 96 h, Huh7.5 cells, 4 days. Type of data set: cell-based, hepatitis C virus. Here is the method:
as §1

Data set [7] concerns ZS11-luc Y93H (HCV genotype 1b replicon). Description: Luciferase replicon transient transfection assay, ZS11-luc Y93H. In kind it is cell-based, hepatitis C virus. The conditions noted are these: for EC50: Hepatitis C virus, 96 h, Huh7.5 cells, 4 days. Here is the method:
as §1

Data set [8] deals with HCV genotype 1b Con1 strain subgenomic luciferase replicon (Zluc). Briefly: Luciferase replicon assay, genotype 1b. Type of data set: cell-based. The conditions noted are these: Hepatitis C virus. Here is the method: (§2) The HCV luciferase replicon assay measures the ability of a test compound to inhibit HCV replication in cell culture after 3 days of treatment in a human hepatoma cell line (Huh-7) bearing an HCV replicon containing a luciferase-neomycin phosphotransferase fusion gene. The inhibition of HCV replication was measured by quantification of luciferase protein expression. Briefly, Huh-7 cells containing either the HCV genotype 1a H77 strain or genotype 1b Con1 strain subgenomic luciferase replicon (H1a-luc or Zluc, respectively) were grown in DMEM containing glucose, L-glutamine and sodium pyruvate, 10% fetal bovine serum (FBS), 100 IU/mL penicillin, 100 μg/mL streptomycin, 2 mM GlutaMAX, non-essential amino acids and 0.25 (H1a-luc) or 0.5 (Zluc) mg/mL G418. GlutaMAX was obtained from Invitrogen, Corp.; all other media reagents were obtained from Mediatech, Inc. For dose-response testing, the cells were seeded in 96-well plates at 1×10^4 (H1a-luc) or 7.5×10^3 (Zluc) cells/well in a volume of 50 μL, and incubated at 37° C./5% CO2. Three hours after plating, 50 μL of ten 5-fold serial dilutions of compound were added, and cell cultures were incubated at 37° C./5% CO2 for 72 hours. In all cases, Huh-7 cells lacking the HCV replicon served as negative control. To assess luciferase expression, the media/compound was removed from the plates and ONE-glo Luciferase assay reagent (Promega) was added to each well. The assay plates were shaken for 3 minutes at room temperature and luciferase activity for each well was measured with a 1 sec read time on the Victor^3V multilabel counter using a 700 nm cut-off filter (Perkin Elmer). EC50 values were calculated from dose response curves from the resulting best-fit equations determined by Microsoft Excel and XLfit 4.1 software.

The next data set concerns HCV genotype 2a. Description: Genotype 2a assay (NS5A-intergenotypic luciferase replicon / genotype 2a infectious virus assay). The conditions noted are these: Hepatitis C virus, read-out: EC50 2a. In kind it is cell-based. An excerpt: (§3) The nucleotide sequences of the NS5A region of genotype 2a (GenBank Accession # AB047639), genotype 3a (GenBank Accession #D17763), and genotype 4a (GenBank Accession# DQ418788) were synthesized by an outside vendor. The NS5A region of each of these genotypes included the first 11 amino acids of the protease recognition sequence of genotype 1b, as well as the last 10 amino acids of genotype 1b. The NS5A gene cassettes were excised with site specific restriction endonucleases and ligated into a ZS11-luciferase genotype 1b backbone (backbone contains the genotype 1b NS3 protease, NS4a, NS4b, and NS5b coding regions) with similarly cut restriction enzyme sites. Thus, the newly constructed plasmid contains a genotype 2a-, 3a- or 4a-specific NS5A gene within the 1b-replicon.
(§4) These new intergenotypic plasmids were used to establish stable cell lines. RNA was generated from the NS5A intergenotypic plasmids and used in conjunction with a lipofectin reagent to transfect a cured Huh7 cell line. Transfected cells were selected for with G418. After selection has occurred the stable cell lines were propagated, tested for luciferase activity, and RT-PCR with genotype specific primers (either 1a, 2a, 3a, or 4a). Stable cell lines containing the intergenotypic replicon were then fully sequenced and analyzed for proper expression of NS3, NS5A and NS5B proteins.
(§5) Drug titration analysis was performed using the luciferase replicon assay described herein.
The genotype 2a infectious virus assay measures the ability of a test compound to inhibit HCV replication in cell culture after 5 days of treatment at the time of HCV genotype 2a virus infection of a permissive human hepatoma cell line (HPC cells). The inhibition of HCV replication was measured by quantification of HCV core protein expression by an enzyme-linked immunosorbent assay (ELISA). Briefly, HPC cells were grown in DMEM containing glucose, L-glutamine and sodium pyruvate, 10% FBS, 100 IU/mL penicillin, 100 μg/mL streptomycin, 2 mM GlutaMAX, and non-essential amino acids. GlutaMAX was obtained from Invitrogen, Corp.; all other media reagents were obtained from Mediatech, Inc. For dose-response testing, ninety-six-well plates were seeded with HPC cells at a density of 2.5×10^3 cells/well in a volume of 50 μL, and incubated at 37° C./5% CO2. Three hours after plating, 50 μL of ten 5-fold serial dilutions of compound and 100 μL of genotype 2a virus were added, and cell cultures were incubated at 37° C./5% CO2. In all cases, mock infected HPC cells served as negative control. At 16 hours post treatment and infection, the virus inoculum was removed by aspiration. The cultures were treated at the same final concentrations of drug diluted in media and incubated for 4 additional days at 37° C./5% CO2. Subsequently, the core ELISA was performed as follows. The plates were fixed for 90 seconds with acetone/methanol (1:1, v/v), washed three times with KPL wash solution (KPL, Inc.), blocked for 1 hr at room temperature with TNE buffer containing 10% FBS and then incubated for 2 hr at 37° C. with the anti-HCV core mouse monoclonal antibody (Thermo Scientific) diluted in the same buffer. After washing three times with KPL wash solution, the cells were incubated for 1 hr at 37° C. with an anti-mouse immunoglobulin G-peroxidase conjugate in TNE/10% FBS. After washing as described above, the reaction was developed with O-phenylenediamine (Invitrogen). The reaction was stopped after 30 min with 2 NH2SO4, and absorbance was read at 490 nm in a Victor^3V 1420 multilabel counter (Perkin Elmer) and EC50 concentrations were determined using Microsoft Excel and XLfit 4.1 software.
The HCV luciferase replicon assay measures the ability of a test compound to inhibit HCV replication in cell culture after 3 days of treatment in a human hepatoma cell line (Huh-7) bearing an HCV replicon containing a luciferase-neomycin phosphotransferase fusion gene. […]

The subject of data set [9] is HCV genotype 3a NS5A within the 1b-replicon. Briefly: Luciferase replicon assay, NS5A-intergenotypic stable cell line genotype 3a. In kind it is cell-based. The conditions noted are these: Hepatitis C virus, read-out: EC50 3a.
Excerpt: as §3, §4, §5, §2

For data set [10], the system named is HCV genotype 4a NS5A within the 1b-replicon. Briefly: Luciferase replicon assay, NS5A-intergenotypic stable cell line genotype 4a. Type of data set: cell-based. The conditions noted are these: Hepatitis C virus, read-out: EC50 4a.
Excerpt: as §3, §4, §5, §2

For data set [11], the system named is HCV genotype 1a H77 strain subgenomic luciferase replicon (H1a-luc). Briefly: Luciferase replicon assay, genotype 1a. In kind it is cell-based. The conditions noted are these: Hepatitis C virus, read-out: EC50 1a. Here is the method:
as §5, §2

In another data set the test system is H1a-luc or Zluc cells. Description: in vitro. The conditions noted are these: Table 1B, cellular viability. Type of data set: cell-based, human. Here is the method: For cytotoxicity evaluation, HPC cells were treated with compounds as described above in the absence of the genotype 2a virus and cellular viability was monitored using the Cell Titer 96 AQueous One Solution Cell Proliferation Assay (Promega). Plates were then read at 490 nm in a Victor^3V 1420 multilabel counter (Perkin Elmer) and CC50 concentrations were determined using Microsoft Excel and XLfit 4.1 software.
For cytotoxicity evaluation, H1a-luc or Zluc cells were treated with compounds as described above and cellular viability was monitored using the Cell Titer 96 AQueous One Solution Cell Proliferation Assay (Promega). Plates were then read at 490 nm in a Victor^3V 1420 multilabel counter (Perkin Elmer) and CC50 concentrations were determined using Microsoft Excel and XLfit 4.1 software.

Experimental findings from patent publication US20120252721A1 (priority 2011, published 2012) are described below.

The term EC50 denotes the concentration that produces a half-maximal response. The term CC50 denotes the concentration that lowers cell viability or growth by half. The low end stands for harm at low concentration, the high end for better tolerance by the cells.

Turning to `COC(=O)N[C@H](C(=O)N1CCCC1c1ncc(-c2csc3c(-c4ccc(-c5cnc(C6CCCN6C(=O)C(c6ccccc6)N6CCCCC6)[nH]5)cc4)csc23)[nH]1)C(C)C` (stereo partly drawn) [Compound A219], the EC50 was found to be 0.04 nM in data set [1]; 1 nM in [2]; 18 nM in data set [3]; 210 nM in [4]; 0.01 nM in [5]; 0.05 nM in [6]. The same molecule yielded an EC50 in data set [7] of 0.6 nM. The Ratio in data set [2] worked out at 25; in [3], 442; in [4], 4841; in data set [6], 4; in data set [7], 49.

Take `COC(=O)N[C@H](C(=O)N1CCCC1c1nc(-c2cc3sc(-c4cnc([C@@H]5CCCN5C(=O)[C@@H](NC(=O)OC)C(C)C)[nH]4)cc3s2)c[nH]1)C(C)C` (stereo partly drawn) [Compound A101]: the 50% effective concentration (EC50) in data set [8] is below 0.1 nM; with HCV genotype 2a it was 1 to 10 nM; in data set [9], 1 to 10 nM; in [10], 1 to 10 nM; in [11] it was 10 to 100 nM. In the data set on H1a-luc or Zluc cells, this molecule registered a CC50 above 75000 nM.

For `COC(=O)N[C@H](C(=O)N1CCC[C@H]1c1ncc(-c2ccc(-c3cc4sc(-c5ccc(-c6c[nH]c(C7CCCN7C(=O)[C@H](NC(=O)OC)c7ccccc7)n6)cc5)cc4s3)cc2)[nH]1)C(C)C` (stereo partly drawn) [Compound A192], the concentration giving a half-maximal response (EC50) turned out to be 0.02 nM in [1]; 9 nM in data set [2]; 11 nM in [3]; 79 nM in data set [4]; 0.003 nM in [5]; 0.05 nM in data set [6]. Further, the midpoint of the response in data set [7], the EC50, lay at 0.4 nM. Further, the Ratio came out at 597 in data set [2]; 678 in data set [3]; 5072 in data set [4]; 20 in data set [6]; 138 in data set [7].
